Reference: the OPERA property sets (Mansouri et al. 2018)
In brackets after ≈: the same amount, converted by molar mass.

conditions: not given

SMILES	logP	solubility [mM]
O=C(O)C(=O)Nc1nc(-c2ccc3c(c2)OCCO3)cs1	1.8	
O=c1[nH]c2ccccc2n1CCCN1CCC(n2c(=O)[nH]c3cc(Cl)ccc32)CC1	3.9	
CC(N)CCc1ccccc1 (stereo not given)	2.12	
CCCCCCCCCCCCN1CCCC1=O	4.2	
CCCCC(=O)Oc1ccc(CC(N)C(=O)O)cc1 (stereo not given)	0.07	
CNc1ncnc2c1ncn2C1OC(CO)CC1F (stereo not given)	0.27	
COc1ccc(Cn2cncn2)cc1	1.1	
CCC(Oc1ccc(Cl)cc1C)C(=O)O (stereo not given)	3.47	
CC(C)C(C#N)c1ccc([N+](=O)[O-])cc1 (stereo not given)	2.8	
Cc1cc(Cc2ccc(Cl)cc2Cl)c(Cl)cc1Cl	7.43	
CCCSc1ccc2[nH]c(NC(=O)OC)nc2c1	3.07	
CCN(C)N=O	0.04	
N#CCCCCCC#N	0.05	
NC(N)=S	-1.08	
Cc1ccc(Br)c(C)c1NC(=O)CN(CC(=O)O)CC(=O)O	-0.28	
Oc1ccc(O)cc1		654 (≈ 72 mg/mL)
Clc1ccc2c(ccc3ccccc32)c1	5.16	
N[C@@H](CSSC[C@H](N)C(=O)O)C(=O)O	-5.08	

same assay, conditions: 20 °C

SMILES	solubility [mM]
c1ccc(C2CO2)cc1 (stereo not given)	25 (≈ 3 mg/mL)
CCC(CC)C(=O)O	155 (≈ 18 mg/mL)
C=C(C)[C@H]1Cc2c(ccc3c2O[C@@H]2COc4cc(OC)c(OC)cc4[C@@H]2C3=O)O1	0.000507 (≈ 0.0002 mg/mL)
CCC#CC(C)O (stereo not given)	387 (≈ 38 mg/mL)
O=C(O)c1ccccn1	7800 (≈ 960 mg/mL)
CC(CO)(CO)[N+](=O)[O-]	5920 (≈ 800 mg/mL)
CCN(C)N=O	3400 (≈ 300 mg/mL)

same assay, conditions: 23 °C

SMILES	solubility [mM]
C[Si]1(C)O[Si](C)(C)O[Si](C)(C)O[Si](C)(C)O[Si](C)(C)O[Si](C)(C)O1	1.15e-05 (≈ 5.1e-06 mg/mL)

same assay, conditions: 23.0 °C

SMILES	log10 OH rate constant (cm³/molecule/s)
CCCCCC=O	-10.5
CCC(C)OCOC(C)CC (stereo not given)	-10.4
CC1=CC[C@@]23CC1C(C)(C)[C@@H]2CC[C@H]3C	-10.2
O=C1CC=CO1	-10.4
CC1=CCCC(C)=CCC(C)(C)C=CC1	-9.54

same assay, conditions: 24 °C

SMILES	solubility [mM]
O=NN1CCCCCC1	99.9 (≈ 12.8 mg/mL)

same assay, conditions: 25 °C

SMILES	solubility [mM]
CCCCCCCCOC(=O)COc1ccc(Cl)cc1Cl	9.51e-05 (≈ 3.17e-05 mg/mL)
CC(C)c1ccccc1	0.51 (≈ 0.0613 mg/mL)
CCCCCCCCCCCCCCC	3.58e-07 (≈ 7.6e-08 mg/mL)
CC(=O)N(C)N=O	170 (≈ 17.4 mg/mL)
ClCOCCl	191 (≈ 22 mg/mL)
CC(C)(C)c1cccc(O)c1	13.8 (≈ 2.07 mg/mL)
CCCCCOC(=O)CC	5.62 (≈ 0.81 mg/mL)
Cc1ccc(O)c(C)c1	64.4 (≈ 7.87 mg/mL)
COC(C)(C)CC(C)=O	2150 (≈ 280 mg/mL)
CCCCCCO[N+](=O)[O-]	0.747 (≈ 0.11 mg/mL)
C=C(C)C(=O)OCC	47.3 (≈ 5.4 mg/mL)
Clc1cc(Cl)c(Cl)cc1Cl	0.00276 (≈ 0.000595 mg/mL)
CCCCN(CCO)CCCC	23.1 (≈ 4 mg/mL)
CC(=O)c1ccc(-c2ccccc2)cc1	0.489 (≈ 0.096 mg/mL)
Clc1cccc(Cl)c1	0.85 (≈ 0.125 mg/mL)
Clc1cc(Cl)c(-c2ccccc2Cl)cc1Cl	5.62e-05 (≈ 1.64e-05 mg/mL)
Clc1ccc(C(c2ccccc2Cl)C(Cl)Cl)cc1 (stereo not given)	0.000312 (≈ 0.0001 mg/mL)
Nc1nc[nH]n1	3330 (≈ 280 mg/mL)
O=C(Oc1ccccc1)c1ccccc1C(=O)Oc1ccccc1	0.000258 (≈ 8.2e-05 mg/mL)
CN(C)c1ccccc1	12 (≈ 1.45 mg/mL)
CCC(C)n1c(=O)[nH]c(C)c(Br)c1=O (stereo not given)	3.12 (≈ 0.815 mg/mL)
CCOC(=O)[C@H](CCc1ccccc1)N[C@@H](C)C(=O)N1CCC[C@H]1C(=O)O	43.6 (≈ 16.4 mg/mL)
O=c1n(Cl)c(=O)n(Cl)c(=O)n1Cl	51.6 (≈ 12 mg/mL)
CS	320 (≈ 15.4 mg/mL)
c1ccc2c(c1)ccc1c3ccc4ccccc4c3[nH]c21	3.78e-05 (≈ 1.01e-05 mg/mL)
O=Nc1ccc2ccccc2c1O	2.89 (≈ 0.5 mg/mL)
CCCCOP(=O)(OCCCC)Oc1ccccc1	0.335 (≈ 0.096 mg/mL)
CCC1CO1 (stereo not given)	1040 (≈ 75 mg/mL)
Cc1ncc(CO)c(CN)c1O	2970 (≈ 500 mg/mL)

same assay, conditions: 25.0 °C

SMILES	log10 OH rate constant (cm³/molecule/s)
CCCCCBr	-11.4
CC(C)Cl	-12
FC(C(F)(F)F)C(F)(F)F	-14.8
CC(C)[N+](=O)[O-]	-12.6
COC(=O)CCCC(=O)OC	-11.5
CC(=O)C=CC=O	-10.3
CC(F)(Cl)Cl	-14.2
CC(C)(C)Cl	-12.4
c1ccc2c(c1)Oc1ccccc1O2	-10.9
CSC(=O)N(C)C	-10.9
CC(C)CCO	-10.9
C1CN2CCN1CC2	-10.7
COc1ccc([N+](=O)[O-])cc1	-11.6
FC(F)OC(F)C(F)(F)F (stereo not given)	-14.4
CCSC(=O)N(CC)C1CCCCC1	-10.5

same assay, conditions: 27 °C

SMILES	solubility [mM]
Cc1c2ccccc2cc2ccc3ccccc3c12	0.000272 (≈ 6.6e-05 mg/mL)

same assay, conditions: 27.0 °C

SMILES	log10 OH rate constant (cm³/molecule/s)
CNC(C)=O	-11.3

same assay, conditions: 30 °C

SMILES	solubility [mM]
ClC(Cl)c1ccccc1	1.55 (≈ 0.25 mg/mL)
BrC(Br)(Br)Br	0.724 (≈ 0.24 mg/mL)
